# Assays:
# [1] = tested on: barnyardgrass; test: Test B pre-/postemergence herbicide test; assay type: in vivo, Echinochloa crus-galli; settings: for Barnyardgrass plant response rating: postemergence, scale 0 (no effect) to 100 (complete control)
# Summary of the method: (§1)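 Evaluation is visual, comparing treated with control plants on a scale where 0 means no effect and 100 means full control. Treatments were preemergence, or postemergence on seedlings 2–18 cm tall, and held 13–15 days in the greenhouse.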
# [2] = tested on: Surinam grass; test: Test B pre-/postemergence herbicide test; assay type: in vivo, Urochloa decumbens; settings: for Surinam Grass plant response rating: postemergence
# Summary of the method: as §1
# [3] = tested on: cocklebur; test: Test B pre-/postemergence herbicide test; assay type: in vivo, Xanthium strumarium; settings: for Cocklebur plant response rating: postemergence, scale 0 (no effect) to 100 (complete control)
# Summary of the method: as §1
# [4] = tested on: corn; test: Test B pre-/postemergence herbicide test; assay type: in vivo, Zea mays; settings: for Corn plant response rating: postemergence
# Summary of the method: as §1
# [5] = tested on: large crabgrass; test: Test B pre-/postemergence herbicide test; assay type: in vivo, Digitaria sanguinalis; settings: for Crabgrass, Large plant response rating: postemergence
# Summary of the method: as §1
# [6] = tested on: giant foxtail; test: Test B pre-/postemergence herbicide test; assay type: in vivo, Setaria faberi; settings: for Foxtail, Giant plant response rating: postemergence
# Summary of the method: as §1
# [7] = tested on: lambsquarters; test: Test B pre-/postemergence herbicide test; assay type: in vivo, Chenopodium album; settings: for Lambsquarters plant response rating: postemergence
# Summary of the method: as §1
# [8] = tested on: morningglory; test: Test B pre-/postemergence herbicide test; assay type: in vivo, Ipomoea coccinea; settings: for Morningglory plant response rating: postemergence
# Summary of the method: as §1
# [9] = tested on: pigweed; test: Test B pre-/postemergence herbicide test; assay type: in vivo, Amaranthus retroflexus; settings: postemergence
# Summary of the method: as §1
# [10] = tested on: rice; test: Test B pre-/postemergence herbicide test; assay type: in vivo, Oryza sativa; settings: 0 = no effect, 100 = complete control, preemergence
# Summary of the method: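 Plants compared with untreated controls 13–15 days post-treatment and given a visual 0–100 injury score. Applications: preemergence to seeds; postemergence at 1- to 4-leaf (2–18 cm); paddy species flooded, 2-leaf stage. Vehicle non-phytotoxic, surfactant included.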
# [11] = tested on: velvetleaf; test: Test B pre-/postemergence herbicide test; assay type: in vivo, Abutilon theophrasti; settings: for Velvetleaf plant response rating: postemergence
# Summary of the method: as §1
# [12] = tested on: blackgrass; test: Test B postemergence herbicide test; assay type: in vivo, Alopecurus myosuroides; settings: postemergence, visual rating, scale 0 (no effect) to 100 (complete control)
# Summary of the method: (§2)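 Each value is a visual 0–100 response rating taken against controls 13 to 15 days after treatment in the greenhouse. Plants received formulated chemical postemergence at the 1- to 4-leaf stage or, in flooded paddy, at the 2-leaf stage.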
# [13] = tested on: wheat; test: Test B postemergence herbicide test; assay type: in vivo, Triticum aestivum; design: key to Wheat plant response rating: 0 = no effect, 100 = complete control; settings: postemergence
# Summary of the method: (§3)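 Postemergence plants were sprayed with formulated test chemicals at 2 to 18 cm height (1- to 4-leaf stage); paddy species were grown to the 2-leaf stage. After 13 to 15 days in a greenhouse, injury was rated visually against untreated controls on a 0–100 scale (0 = no effect, 100 = complete control).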
# [14] = tested on: wild oat; test: Test B postemergence herbicide test; assay type: in vivo, Avena fatua; settings: postemergence
# Summary of the method: as §3
# [15] = tested on: rice; test: Test B flooded paddy test; assay type: in vivo, Oryza sativa; settings: 1000 g ai/ha, scale 0 to 100 (0 no effect, 100 complete control)
# Summary of the method: as §2
# [16] = tested on: small flower umbrella sedge; test: Test B flooded paddy test; assay type: in vivo, Cyperus difformis; settings: 1000 g ai/ha, scale 0 to 100 (0 no effect, 100 complete control)
# Summary of the method: as §2
# [17] = tested on: ducksalad; test: Test B flooded paddy test; assay type: in vivo, Heteranthera limosa; settings: 1000 g ai/ha, scale 0 to 100 (0 no effect, 100 complete control)
# Summary of the method: as §2
# [18] = tested on: barnyardgrass; test: Test B flooded paddy test; assay type: in vivo, Echinochloa crus-galli; settings: 1000 g ai/ha, scale 0 to 100 (0 no effect, 100 complete control)
# Summary of the method: as §2
# [19] = 125 g ai/ha, 0 = no effect, 100 = complete control, preemergence
# [20] = 500 g ai/ha, visual rating, 0 = no effect, 100 = complete control, preemergence
# [21] = 125 g ai/ha, visual rating, scale 0 (no effect) to 100 (complete control)
# [22] = 500 g ai/ha, scale 0 to 100, 0 is no effect, 100 is complete control
structure (smiles),measurement,setting,value
CCN(CC)C(=O)c1cc(NC(=O)c2cc(C(C)(C)C)nn2CC)c(F)cc1F [Compound 253],Barnyardgrass plant response rating (0 to 100 scale),[1]; [19],0
same,"Plant response rating, Barnyardgrass",[1]; [20],10
same,Barnyardgrass plant response rating,"[1]; 125 g ai/ha, visual rating",0
same,Barnyardgrass plant response rating,"[1]; 500 g ai/ha, visual rating",10
same,Surinam Grass plant response rating (0 to 100 scale),[2]; [19],10
same,"Plant response rating, Surinam Grass",[2]; [20],30
same,Surinam Grass plant response rating,[2]; [21],0
same,Surinam Grass plant response rating,[2]; [22],0
same,Cocklebur plant response rating (0 to 100 scale),[3]; [19],0
same,"Plant response rating, Cocklebur",[3]; [20],0
same,Cocklebur plant response rating,"[3]; 125 g ai/ha, visual rating",10
same,Cocklebur plant response rating,"[3]; 500 g ai/ha, visual rating",20
same,Corn plant response rating (0 to 100 scale),[4]; [19],0
same,"Plant response rating, Corn",[4]; [20],0
same,Corn plant response rating,[4]; [21],0
same,Corn plant response rating,[4]; [22],0
same,"Crabgrass, Large plant response rating (0 to 100 scale)",[5]; [19],20
same,"Crabgrass, Large plant response rating",[5]; [21],0
same,"Crabgrass, Large plant response rating",[5]; [22],0
same,"Foxtail, Giant plant response rating (0 to 100 scale)",[6]; [19],0
same,"Plant response rating, Foxtail, Giant",[6]; [20],30
same,"Foxtail, Giant plant response rating",[6]; [21],0
same,"Foxtail, Giant plant response rating",[6]; [22],0
same,Lambsquarters plant response rating (0 to 100 scale),[7]; [19],0
same,Lambsquarters plant response rating,[7]; [21],20
same,Lambsquarters plant response rating,[7]; [22],30
same,Morningglory plant response rating (0 to 100 scale),[8]; [19],0
same,"Plant response rating, Morningglory",[8]; [20],0
same,Morningglory plant response rating,[8]; [21],0
same,Morningglory plant response rating,[8]; [22],30
same,Pigweed plant response rating,[9]; [21],20
same,Pigweed plant response rating,[9]; [22],30
same,Rice plant response rating (0 to 100 scale),[10]; 125 g ai/ha,0
same,"Plant response rating, Rice","[10]; 500 g ai/ha, visual rating",0
same,Velvetleaf plant response rating (0 to 100 scale),[11]; [19],0
same,"Plant response rating, Velvetleaf",[11]; [20],20
same,Velvetleaf plant response rating,[11]; [21],10
same,Velvetleaf plant response rating,[11]; [22],10
same,Blackgrass plant response rating,[12]; 125 g ai/ha,20
same,Blackgrass plant response rating,[12]; 500 g ai/ha,20
same,Wheat plant response rating,[13]; [21],20
same,Wheat plant response rating,[13]; [22],30
same,"Oat, Wild plant response rating",[14]; [21],20
same,"Oat, Wild plant response rating",[14]; [22],30
same,Rice plant response rating,[15],50
same,"Sedge, Umbrella plant response rating",[16],20
same,Ducksalad plant response rating,[17],60
same,Barnyardgrass plant response rating,[18],0
